Reference: US20250346600A1, “TRICYCLIC DERIVATIVES AND RELATED USES” (MOMA Therapeutics, Inc., priority 2023, published 2025)
Like-named read-outs stand apart in the source and are kept apart here.

Experiments:
[1] = biological target: T1, Full length WRN protein (aa 2-1432) (Homo sapiens (Human), UniProt Q14191); assay: WRN ATPase ADP-Glo biochemical assay, Assay Format A (10 μM ATP); details: 0.25 nM WRN, 100 nM C6.18 ssDNA, 30 min preincubation, read-out: ATPase ADPGlo AC50 (uM)- Assay Format A
In short: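 Sf9-expressed FLAG-AVI-TEV-tagged WRN (0.5 nM) preincubated 30 min with compound (11-point 3-fold dilution). Reaction started with 200 nM C6.18 39-mer ssDNA and 20 μM ATP (addition concentrations), run 30 min at room temperature. ADP measured by ADP-Glo luminescence; IC50 from four-parameter fit, geometric mean of ≥2 runs.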

HT29 cells = assay: HT29 (MSS) 7 day viability, CellTiter Glo; format: cell-based; details: 7 days, read-out: HT29 (MSS) Viability 7 Day CTGAbs AC50
In short: (§1)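 Luminescence read-out (CellTiter Glo) after 7-day compound exposure at 37 °C. Seeding density 50 cells/well for HCT116, 500 cells/well for HT29. Background from cell-free medium wells; IC50 by four-parameter logistic fit, geometric mean of at least 2 replicates.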

HCT116 cells = assay: HCT116 (MSI) 7 day viability, CellTiter Glo; format: cell-based; details: 7 days, read-out: HCT116 (MSI) Viability 7 Day Abs AC50
In short: as §1

[2] = biological target: T1, Full length WRN protein (aa 2-1432); assay: WRN ATPase ADP-Glo biochemical assay, Assay Format B (100 μM ATP); details: 0.25 nM WRN, 100 nM C6.18 ssDNA, 60 min preincubation, read-out: ATPase ADPGlo AC50 (uM)- Assay Format B

T1 sequence (Q14191 2-1432): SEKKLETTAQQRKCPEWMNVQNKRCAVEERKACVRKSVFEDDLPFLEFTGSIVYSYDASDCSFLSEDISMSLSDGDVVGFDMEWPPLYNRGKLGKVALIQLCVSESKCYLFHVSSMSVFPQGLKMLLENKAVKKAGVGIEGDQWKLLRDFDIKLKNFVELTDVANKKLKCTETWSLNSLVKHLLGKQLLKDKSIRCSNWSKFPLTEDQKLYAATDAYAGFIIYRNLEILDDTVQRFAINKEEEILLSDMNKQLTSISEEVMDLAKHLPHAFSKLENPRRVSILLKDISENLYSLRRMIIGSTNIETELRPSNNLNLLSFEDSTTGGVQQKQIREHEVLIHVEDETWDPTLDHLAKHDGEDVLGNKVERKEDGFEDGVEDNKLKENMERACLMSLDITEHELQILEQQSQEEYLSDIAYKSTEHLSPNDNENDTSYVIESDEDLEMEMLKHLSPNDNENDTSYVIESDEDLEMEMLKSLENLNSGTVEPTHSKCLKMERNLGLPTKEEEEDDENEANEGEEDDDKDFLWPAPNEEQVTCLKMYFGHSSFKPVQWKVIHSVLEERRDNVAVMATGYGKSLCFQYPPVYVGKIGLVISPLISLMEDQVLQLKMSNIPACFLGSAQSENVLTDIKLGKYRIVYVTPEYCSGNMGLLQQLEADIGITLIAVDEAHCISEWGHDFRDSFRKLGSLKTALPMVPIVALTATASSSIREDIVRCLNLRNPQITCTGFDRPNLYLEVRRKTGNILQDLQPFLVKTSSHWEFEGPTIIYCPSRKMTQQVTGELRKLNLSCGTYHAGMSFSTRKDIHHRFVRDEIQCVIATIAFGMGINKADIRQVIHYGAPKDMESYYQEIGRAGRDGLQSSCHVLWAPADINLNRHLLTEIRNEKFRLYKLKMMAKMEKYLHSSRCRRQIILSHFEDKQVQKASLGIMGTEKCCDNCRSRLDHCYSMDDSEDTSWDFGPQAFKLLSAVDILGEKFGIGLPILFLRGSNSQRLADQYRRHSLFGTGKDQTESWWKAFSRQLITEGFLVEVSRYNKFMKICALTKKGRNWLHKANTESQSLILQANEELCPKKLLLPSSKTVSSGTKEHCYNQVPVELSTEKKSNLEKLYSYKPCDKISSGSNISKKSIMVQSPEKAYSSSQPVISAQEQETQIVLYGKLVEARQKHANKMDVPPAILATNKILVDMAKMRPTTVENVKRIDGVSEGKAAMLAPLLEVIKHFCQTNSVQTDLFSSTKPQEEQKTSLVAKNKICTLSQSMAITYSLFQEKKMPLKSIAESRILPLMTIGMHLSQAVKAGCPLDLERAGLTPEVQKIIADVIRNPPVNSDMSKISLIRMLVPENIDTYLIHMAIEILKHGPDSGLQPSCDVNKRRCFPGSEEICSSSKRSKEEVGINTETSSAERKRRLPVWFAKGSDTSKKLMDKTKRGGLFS

| Structure (SMILES) | AC50 [1] [µM] | AC50 [2] [µM] | AC50 (HT29 cells) [nM] | AC50 (HCT116 cells) [nM] | AC50 (HT29 cells; Homo sapiens, HT-29, 168 h) [nM] | AC50 (HCT116 cells; Homo sapiens, HCT-116, 168 h) [nM] |
| --- | --- | --- | --- | --- | --- | --- |
| C=CC(=O)N1CCc2nn(-c3ccc(C45CC(C4)C5)cc3)c3c2C(C1)N(C(=O)c1ccc(Br)c2[nH]cnc12)CC3 (stereo not shown) [Compound 4, 1-(2-(4-(bicyclo[1.1.1]pentan-1-yl)phenyl)-5-(7-bromo-1H-benzo[d]imidazole-4-carbonyl)-2,3,4,5,5a,6,8,9-octahydro-7H-1,2,5,7-tetraazabenzo[cd]azulen-7-yl)prop-2-en-1-one] | < 0.0015 | 0.015 to 0.055 |  |  | > 3000 | 1 to 100 |
| C=CC(=O)N1CCc2nn(-c3ccc(C(C)C)cc3)c3c2C(C1)N(C(=O)c1cnc(C(F)(F)F)c(OC)c1)CC3 (stereo not shown) [Compound 12, 1-(2-(4-isopropylphenyl)-5-(5-methoxy-6-(trifluoromethyl)nicotinoyl)-2,3,4,5,5a,6,8,9-octahydro-7H-1,2,5,7-tetraazabenzo[cd]azulen-7-yl)prop-2-en-1-one] | < 0.0015 | 0.015 to 0.055 |  |  | > 3000 | 1 to 100 |
| C=CC(=O)N1CCc2nn(-c3ccc(C4CCC4)cc3O)c3c2C(C1)N(C(=O)c1ccc(C(F)(F)F)c2[nH]ncc12)CC3 (stereo not shown) [Compound 97, 1-(2-(4-cyclobutyl-2-hydroxyphenyl)-5-(7-(trifluoromethyl)-1H-indazole-4-carbonyl)-2,3,4,5,5a,6,8,9-octahydro-7H-1,2,5,7-tetraazabenzo[cd]azulen-7-yl)prop-2-en-1-one] | < 0.0015 | 0.005 to 0.015 |  |  | > 3000 | 1 to 100 |
| C=CC(=O)N1CCc2nn(-c3ccc(C(C)C)cc3)c3c2C(C1)N(C(=O)c1ccc(C(F)(F)F)nc1)CC3 (stereo not shown) [Compound 13, 1-(2-(4-isopropylphenyl)-5-(6-(trifluoromethyl)nicotinoyl)-2,3,4,5,5a,6,8,9-octahydro-7H-1,2,5,7-tetraazabenzo[cd]azulen-7-yl)prop-2-en-1-one] | 0.0015 to 0.005 | 0.015 to 0.055 |  |  | > 3000 | 100 to 250 |
| C=CC(=O)N1CCc2nn(-c3ccc(C45CC(C4)C5)cc3F)c3c2C(C1)N(C(=O)c1ccc(Br)c2[nH]cnc12)CC3 (stereo not shown) [Compound 30, 1-(2-(4-(bicyclo[1.1.1]pentan-1-yl)-2-fluorophenyl)-5-(7-bromo-1H-benzo[d]imidazole-4-carbonyl)-2,3,4,5,5a,6,8,9-octahydro-7H-1,2,5,7-tetraazabenzo[cd]azulen-7-yl)prop-2-en-1-one] | < 0.0015 | 0.005 to 0.015 |  |  | > 3000 | 1 to 100 |
| C=CC(=O)N1CCc2nn(-c3ccc(C4CC4)cc3)c3c2C(C1)N(C(=O)c1ccc(C#N)c2[nH]cnc12)CC3 (stereo not shown) [Compound 18, 4-(7-acryloyl-2-(4-cyclopropylphenyl)-3,4,5,5a,6,7,8,9-octahydro-2H-1,2,5,7-tetraazabenzo[cd]azulene-5-carbonyl)-1H-benzo[d]imidazole-7-carbonitrile] | 0.0015 to 0.005 | 0.015 to 0.055 |  |  | > 3000 | 1 to 100 |
| C=CC(=O)N1CCc2nn(-c3ccc(C(C)C)cc3)c3c2C(C1)N(C(=O)c1ncc(Br)c2[nH]cnc12)CC3 (stereo not shown) [Compound 10, 1-(5-(7-bromo-1H-imidazo[4,5-c]pyridine-4-carbonyl)-2-(4-isopropylphenyl)-2,3,4,5,5a,6,8,9-octahydro-7H-1,2,5,7-tetraazabenzo[cd]azulen-7-yl)prop-2-en-1-one] | < 0.0015 | 0.015 to 0.055 |  |  | > 3000 | 1 to 100 |
| C=CC(=O)N1CC(C)Oc2nn(-c3ccc(C(C)C)cc3)c3c2C(C1)N(C(=O)c1ccc(Br)c2[nH]cnc12)CC3 (stereo not shown) [Compound 52, 1-(5-(7-bromo-1H-benzo[d]imidazole-4-carbonyl)-2-(4-isopropylphenyl)-9-methyl-2,3,4,5,5a,6,8,9-octahydro-7H-10-oxa-1,2,5,7-tetraazacycloocta[cd]inden-7-yl)prop-2-en-1-one] | 0.005 to 0.015 | > 0.055 |  |  | > 3000 | 250 to 500 |
| C=CC(=O)N1CCc2nn(-c3ccc(C4CCC4)c(F)c3)c3c2C(C1)N(C(=O)c1cnc(C(F)(F)F)c(O)c1)CC3 (stereo not shown) [Compound 66, 1-(2-(4-cyclobutyl-3-fluorophenyl)-5-(5-hydroxy-6-(trifluoromethyl)nicotinoyl)-2,3,4,5,5a,6,8,9-octahydro-7H-1,2,5,7-tetraazabenzo[cd]azulen-7-yl)prop-2-en-1-one] | < 0.0015 | 0.005 to 0.015 |  |  | > 3000 | 1 to 100 |
| C=CC(=O)N1CCc2nn(-c3ccc(C45CC(C4)C5)cc3)c3c2C(C1)N(C(=O)c1ccc(C(F)(F)F)c2[nH]ncc12)CC3 (stereo not shown) [Compound 19, 1-(2-(4-(bicyclo[1.1.1]pentan-1-yl)phenyl)-5-(7-(trifluoromethyl)-1H-indazole-4-carbonyl)-2,3,4,5,5a,6,8,9-octahydro-7H-1,2,5,7-tetraazabenzo[cd]azulen-7-yl)prop-2-en-1-one] | 0.0015 to 0.005 | 0.015 to 0.055 |  |  | > 3000 | 1 to 100 |

More lines, main results first:

| AC50 [1] [µM] | AC50 [2] [µM] | Structure (SMILES) | AC50 (HT29 cells) [nM] | AC50 (HCT116 cells) [nM] | AC50 (HT29 cells; Homo sapiens, HT-29, 168 h) [nM] | AC50 (HCT116 cells; Homo sapiens, HCT-116, 168 h) [nM] |
| --- | --- | --- | --- | --- | --- | --- |
| < 0.0015 | 0.005 to 0.015 | C=CC(=O)N1CCc2nn(-c3ccc(C4CC4)cc3)c3c2C(C1)N(C(=O)c1cnc(Cl)cc1N)CC3 (stereo not shown) [Compound 162, 1-(5-(4-amino-6-chloronicotinoyl)-2-(4-cyclopropylphenyl)-2,3,4,5,5a,6,8,9-octahydro-7H-1,2,5,7-tetraazabenzo[cd]azulen-7-yl)prop-2-en-1-one] | > 3000 | 1 to 100 |  |  |
| < 0.0015 | 0.015 to 0.055 | C=CC(=O)N1CCc2nn(-c3ccc(C45CC(C4)C5)cc3)c3c2C(C1)N(C(=O)c1ccc(C(F)(F)F)nc1N)CC3 (stereo not shown) [Compound 152, 1-(5-(2-amino-6-(trifluoromethyl)nicotinoyl)-2-(4-(bicyclo[1.1.1]pentan-1-yl)phenyl)-2,3,4,5,5a,6,8,9-octahydro-7H-1,2,5,7-tetraazabenzo[cd]azulen-7-yl)prop-2-en-1-one] |  |  | > 3000 | 1 to 100 |
| < 0.0015 | 0.005 to 0.015 | C=CC(=O)N1CC(OC2CC3(COC3)C2)c2nn(-c3ccc(C4CCC4)cc3)c3c2C(C1)N(C(=O)c1cnc(C(F)(F)F)cc1N)CC3 (stereo not shown) [Compound 246] |  |  | > 3000 | 1 to 100 |
| < 0.0015 | 0.005 to 0.015 | C=CC(=O)N1CCc2nn(-c3ccc(C4CC4)cc3O)c3c2C(C1)N(C(=O)c1ccc(Cl)nc1N)CC3 (stereo not shown) [Compound 199, 1-(5-(2-amino-6-chloronicotinoyl)-2-(4-cyclopropyl-2-hydroxyphenyl)-2,3,4,5,5a,6,8,9-octahydro-7H-1,2,5,7-tetraazabenzo[cd]azulen-7-yl)prop-2-en-1-one] |  |  | > 3000 | 1 to 100 |
| 0.005 to 0.015 | 0.015 to 0.055 | C=CC(=O)N1CCc2nn(-c3ccc(C4CC4)cc3)c3c2C(C1)N(C(=O)c1ccc(C(F)(F)F)nc1O)CC3 (stereo not shown) [Compound 109, 1-(2-(4-cyclopropylphenyl)-5-(2-hydroxy-6-(trifluoromethyl)nicotinoyl)-2,3,4,5,5a,6,8,9-octahydro-7H-1,2,5,7-tetraazabenzo[cd]azulen-7-yl)prop-2-en-1-one] |  |  | > 3000 | 250 to 500 |
| < 0.0015 | 0.005 to 0.015 | C=CC(=O)N1CC(OC)c2nn(-c3ccc(C4CC4)cc3)c3c2C(C1)N(C(=O)c1cnc(C(F)(F)F)cc1N)CC3 (stereo not shown) [Compound 187, 1-(5-(4-amino-6-(trifluoromethyl)nicotinoyl)-2-(4-cyclopropylphenyl)-9-methoxy-2,3,4,5,5a,6,8,9-octahydro-7H-1,2,5,7-tetraazabenzo[cd]azulen-7-yl)prop-2-en-1-one] |  |  | > 3000 | 1 to 100 |
| < 0.0015 | 0.005 to 0.015 | C=CC(=O)N1CCc2nn(-c3ccc(C4CC4)cc3)c3c2C(C1)N(C(=O)c1cnc(C(F)(F)F)c(F)c1N)CC3 (stereo not shown) [Compound 178, 1-(5-(4-amino-5-fluoro-6-(trifluoromethyl)nicotinoyl)-2-(4-cyclopropylphenyl)-2,3,4,5,5a,6,8,9-octahydro-7H-1,2,5,7-tetraazabenzo[cd]azulen-7-yl)prop-2-en-1-one] |  |  | > 3000 | 1 to 100 |
| < 0.0015 | 0.005 to 0.015 | C=CC(=O)N1CCc2nn(-c3ccc(C4CCC4)c(F)c3O)c3c2C(C1)N(C(=O)c1cnc(C(F)(F)F)c(O)c1)CC3 (stereo not shown) [Compound 141, 1-(2-(4-cyclobutyl-3-fluoro-2-hydroxyphenyl)-5-(5-hydroxy-6-(trifluoromethyl)nicotinoyl)-2,3,4,5,5a,6,8,9-octahydro-7H-1,2,5,7-tetraazabenzo[cd]azulen-7-yl)prop-2-en-1-one] |  |  | > 3000 | 1 to 100 |
| < 0.0015 | 0.005 to 0.015 | C=CC(=O)N1CCc2nn(-c3ccc(C4CCC4)cc3O)c3c2C(C1)N(C(=O)c1ccc(SC(F)(F)F)nc1)CC3 (stereo not shown) [Compound 157, 1-(2-(4-cyclobutyl-2-hydroxyphenyl)-5-(6-((trifluoromethyl)thio)nicotinoyl)-2,3,4,5,5a,6,8,9-octahydro-7H-1,2,5,7-tetraazabenzo[cd]azulen-7-yl)prop-2-en-1-one] |  |  | > 3000 | 1 to 100 |
